# What was measured:
# [1] = test system: transformed tobacco seedlings; assay: Kanamycin resistance of progeny of transformed tobacco (Example 22); type: in vivo, Nicotiana tabacum
# Experimental: Growth medium was prepared from Murishige minimal organics medium (Gibco Laboratories, Grand Island, N.Y.), 8 g/l agar, supplemented with T vitamins (50 ppb biotin, 0.5 ppm pyridoxine HCl, 0.5 ppm thiamine HCl, 5 ppm nicotinic acid, 0.5 ppm folic acid, 2 ppm glycine, 100 ppm myo-inositol), sterilized and placed into sterile PlantCon plant tissue culture containers (Flow Laboratories, McLean, Va.). Tobacco seed obtained from the self-pollination of the primary transformants was surface sterilized by a treatment of not more than 30 min in 20% chlorine bleach, 0.1% sodium dodecyl sulfate, followed by rinsing in distilled water, and placed on the surface of the medium in the sterile containers. Following this treatment, the seed was allowed to germinate and grow under illumination (100 microeinsteins·m^-2 ·s^-1), at 22° C.
# The number of loci where t-DNA was incorporated into the genome of the tobacco was determined by segregation analysis of kanamycin resistance in the next generation of progeny. Seed from the self pollination of the primary transformants was grown as described above on medium supplemented with 200 ppm kanamycin sulfate (Sigma). After 21 days, resistant (transformed) plants were unaffected compared to control plants, whereas sensitive plants were smaller, partially chlorotic, and poorly rooted. Determination of the number of genetic loci of the primary transformants was based on the segregation of the kanamycin resistance trait.
# Copy number determination is from kanamycin sensitive segregation analysis of about 100 seed.
# [2] = test system: Arabidopsis thaliana seedlings; assay: Seed germination assay of transgenic Arabidopsis (Example 26); type: in vivo; conditions: Kanamycin 50 mg/l
# Experimental: T2 seed was harvested from selected putative transformants and sown on GM medium containing 50 mg/l kanamycin and that containing 5 ppb 10015. Plates were sealed with filter tape, cold treated for 2 or more days at 4° C., and then incubated for 10 to 20 days at 23° C. under constant illumination as described above. Seedlings were scored as resistant (green, true leaves develop) and sensitive (no true leaves develop). […] The percent of resistant seedlings is inversely proportional with the two selections. Kanamycin is a positive selection for those seedlings that carry the foreign DNA.
# Selected T2 seedlings that were kanamycin resistant were transplanted to soil and were grown to maturity at 21° C. daytime (14 hours) 18° C. nighttime (10 hours) at 65-80% relative humidity. T3 seed was collected, sterilized, and germinated on GM medium containing 50 mg/l kanamycin and that containing 5 ppb 10015. Plates were sealed with filter tape, cold treated for 2 or more days at 4° C., and then incubated for 10 to 20 days at 23° C. under constant illumination as described above. Two of the six plants produced seed that was 100% resistant to kanamycin and 100% sensitive to 10015; they are homozygous for the inserted DNA. The other four parents are heterozygous and show an inverse proportion of kanamycin and 10015 resistant seedlings. […] Therefore, seedlings expressing the P450SU1 gene can be negatively selected.
# Germination assays of homozygous seed on various concentrations of 10015 were performed to assay the relative sensitivity to 10015 produced by the three different promoters and between independent transformants. Seed was sterilized, sown on GM medium with 0, 0.5, 1, 2, 5, 10 and 20 ppb 10015, incubated, and scored as described above. In addition, seedlings are rated on a scale of one to three for the amount of growth.
# Over 500 seed that are homozygous for the P450SU1 coding region were sown on the same plates. The plates were sealed, cold-treated, and incubated as previously described. […] Wild type seedlings were unaffected by the dying transformed seedlings. In addition, when greater than 10,000 seed of a homozygous Cab-SU111 plant was sown on GM medium with 10 ppb 10015, then cold-treated and incubated as described above, eighteen seedlings were resistant to 10015 and were unaffected by neighboring seedlings.
# [3] = test system: S. lividans pCAO200SU1-FeS-B#9; assay: Sulfonylurea metabolism by washed cell suspension (Examples 6-9); type: in vitro ADME, Streptomyces lividans; conditions: substrate 10006
# Experimental: (§1) Herbicides and their metabolites are measured by HPLC as described by Romesser et al., BBRC 140: 650-659 (1986), herein incorporated by reference, except that 0.1% H3 PO4 is used in both solvents. Chromatographic identity and quantitation of the herbicides and their resulting metabolites is determined by comparing them chromatographically with authentic standard compounds. Identity of the resulting metabolites is also confirmed by UV spectroscopy.
# A 100 ml culture of S. griseolus ATCC 11796 in sporulation broth and a 50 ml culture of S. lividans transformed with pCAO400 in YEME broth were prepared and incubated for 24 hours as described. At that time, the S. griseolus culture was split into two 50 ml aliquots into two separate flasks and 25 ml of fresh sporulation broth was added to each and 9 mg of […] was added to one of these cultures to induce cytochrome P450SU1 expression. Fresh YEME broth (25 ml) was added to the S. lividans culture. After an additional 6 hours growth at 30° C., the cells in each culture were harvested as described above, washed twice with MOPS (50 mM, pH 7.2) and recentrifuged. The cell pellets were resuspended in four cell volumes of MOPS (50 mM, pH 7.2) containing 0.2% glucose and about 100 μg/ml of 10004. These cell suspensions were incubated at 30° C. with shaking and aliqouts were taken at 2 and 5.5 hours. The supernatant of each aliquot was analyzed by HPLC and the concentrations of the sulfonylurea compound 10004 and its metabolite 10005 were determined.
# S. lividans transformed respectively with pCAO200SU1-FeS-B#9, pCAO200SU#112and pCAO200 were cultured for 36 hours in 400 ml of YEME broth at 30° C. S. griseolus ATCC 11796 was similarly cultured in 400 ml of sporulation broth. Six hours before harvesting the cells, 150 ml of fresh YEME broth was added to the S. lividans cells, and the S. griseolus cells were split into two 200 ml cultures with 100 ml of fresh sporulation broth added to each. 10001 (36 mg) was added to one of the two S. griseolus cultures to induce cytochrome P450SU1. […]
# [4] = test system: S. lividans pCAO200SU1#12; assay: as above; type: in vitro ADME, Streptomyces lividans; conditions: substrate 10006
# Experimental: as §1, with “spectroscopy. […]” for “spectroscopy.”
# (§2) S. lividans transformed respectively with pCAO200SU1-FeS-B#9, pCAO200SU#112and pCAO200 were cultured for 36 hours in 400 ml of YEME broth at 30° C. S. griseolus ATCC 11796 was similarly cultured in 400 ml of sporulation broth. Six hours before harvesting the cells, 150 ml of fresh YEME broth was added to the S. lividans cells, and the S. griseolus cells were split into two 200 ml cultures with 100 ml of fresh sporulation broth added to each. 10001 (36 mg) was added to one of the two S. griseolus cultures to induce cytochrome P450SU1. The cells were prepared as described above in Example 5 and the concentrations of the sulfonylurea compound 10006 and its metabolites 10007, 10008 or 10009 were determined.
# S. lividans pCAO200 = assay: as above; type: in vitro ADME, Streptomyces lividans; conditions: substrate 10006
# Experimental: as §1, with “spectroscopy. […]” for “spectroscopy.”
# as §2
smiles,measurement,setting,value
"NC[C@H]1O[C@H](O[C@H]2[C@H](O)[C@@H](O[C@H]3O[C@H](CO)[C@@H](O)[C@H](N)[C@H]3O)[C@H](N)C[C@@H]2N)[C@H](O)[C@@H](O)[C@@H]1O [Kanamycin, reference compound]",Kanamycin Resistant (plants demonstrating result/total plants),[1]; AGS502 (Control),6/9
same,Kanamycin Resistant (plants demonstrating result/total plants),[1]; SuFe21.2,7/10
same,Kanamycin Resistant (plants demonstrating result/total plants),[1]; SuFe21.5,8/10
same,Kanamycin Resistant (plants demonstrating result/total plants),[1]; SuFe21.6,9/10
same,Kanamycin Resistant (plants demonstrating result/total plants),[1]; SuFe21.7,7/10
same,Kanamycin Resistant (plants demonstrating result/total plants),[1]; SuFe21.8,8/9
same,Kanamycin Resistant (plants demonstrating result/total plants),[1]; SuFell.1,7/9
same,Kanamycin Resistant (plants demonstrating result/total plants),[1]; SuFell.11,7/8
same,Kanamycin Resistant (plants demonstrating result/total plants),[1]; SuFell.3,5/10
same,Kanamycin Resistant (plants demonstrating result/total plants),[1]; SuFell.4,7/10
same,Kanamycin Resistant (plants demonstrating result/total plants),[1]; SuFell.7,9/10
same,Kanamycin Resistant (plants demonstrating result/total plants),[1]; SuFell.8,10/10
same,#R number of resistant seedlings,"[2]; T2 seed ID 12-1, pCab-SU111",11
same,#S number of sensitive seedlings,"[2]; T2 seed ID 12-1, pCab-SU111",6
same,% R percent of seedlings which are resistant,"[2]; T2 seed ID 12-1, pCab-SU111",65%
same,#R number of resistant seedlings,"[2]; T2 seed ID 12-2, pCab-SU111",0
same,#S number of sensitive seedlings,"[2]; T2 seed ID 12-2, pCab-SU111",12
same,% R percent of seedlings which are resistant,"[2]; T2 seed ID 12-2, pCab-SU111",0%
same,#R number of resistant seedlings,"[2]; T2 seed ID 12-4, pCab-SU111",13
same,#S number of sensitive seedlings,"[2]; T2 seed ID 12-4, pCab-SU111",18
same,% R percent of seedlings which are resistant,"[2]; T2 seed ID 12-4, pCab-SU111",42%
same,#R number of resistant seedlings,"[2]; T2 seed ID 12-5, pCab-SU111",0
same,#S number of sensitive seedlings,"[2]; T2 seed ID 12-5, pCab-SU111",20
same,% R percent of seedlings which are resistant,"[2]; T2 seed ID 12-5, pCab-SU111",0%
same,#R number of resistant seedlings,"[2]; T2 seed ID 12-6, pCab-SU111",15
same,#S number of sensitive seedlings,"[2]; T2 seed ID 12-6, pCab-SU111",9
same,% R percent of seedlings which are resistant,"[2]; T2 seed ID 12-6, pCab-SU111",62%
same,#R number of resistant seedlings,"[2]; T2 seed ID 12-7, pCab-SU111",21
same,#S number of sensitive seedlings,"[2]; T2 seed ID 12-7, pCab-SU111",7
same,% R percent of seedlings which are resistant,"[2]; T2 seed ID 12-7, pCab-SU111",75%
same,#R number of resistant seedlings,"[2]; T2 seed ID 12-8, pCab-SU111",6
same,#S number of sensitive seedlings,"[2]; T2 seed ID 12-8, pCab-SU111",5
same,% R percent of seedlings which are resistant,"[2]; T2 seed ID 12-8, pCab-SU111",55%
same,#R number of resistant seedlings,"[2]; T2 seed ID 12-9, pCab-SU111",13
same,#S number of sensitive seedlings,"[2]; T2 seed ID 12-9, pCab-SU111",3
same,% R percent of seedlings which are resistant,"[2]; T2 seed ID 12-9, pCab-SU111",81%
same,#R number of resistant seedlings,"[2]; T2 seed ID 12-10, pCab-SU111",0
same,#S number of sensitive seedlings,"[2]; T2 seed ID 12-10, pCab-SU111",21
same,% R percent of seedlings which are resistant,"[2]; T2 seed ID 12-10, pCab-SU111",0%
same,#R number of resistant seedlings,"[2]; T2 seed ID 12-11, pCab-SU111",0
same,#S number of sensitive seedlings,"[2]; T2 seed ID 12-11, pCab-SU111",9
same,% R percent of seedlings which are resistant,"[2]; T2 seed ID 12-11, pCab-SU111",0%
same,#R number of resistant seedlings,"[2]; T3 seed ID 12-1-1, pCab-SU111",184
same,#S number of sensitive seedlings,"[2]; T3 seed ID 12-1-1, pCab-SU111",0
same,% R percent of seedlings which are resistant,"[2]; T3 seed ID 12-1-1, pCab-SU111",100%
same,#R number of resistant seedlings,"[2]; T3 seed ID 12-1-2, pCab-SU111",191
same,#S number of sensitive seedlings,"[2]; T3 seed ID 12-1-2, pCab-SU111",0
same,% R percent of seedlings which are resistant,"[2]; T3 seed ID 12-1-2, pCab-SU111",100%
same,#R number of resistant seedlings,"[2]; T3 seed ID 12-1-3, pCab-SU111",136
same,#S number of sensitive seedlings,"[2]; T3 seed ID 12-1-3, pCab-SU111",41
same,% R percent of seedlings which are resistant,"[2]; T3 seed ID 12-1-3, pCab-SU111",77%
same,#R number of resistant seedlings,"[2]; T3 seed ID 12-1-4, pCab-SU111",98
same,#S number of sensitive seedlings,"[2]; T3 seed ID 12-1-4, pCab-SU111",39
same,% R percent of seedlings which are resistant,"[2]; T3 seed ID 12-1-4, pCab-SU111",72%
same,#R number of resistant seedlings,"[2]; T3 seed ID 12-1-5, pCab-SU111",161
same,#S number of sensitive seedlings,"[2]; T3 seed ID 12-1-5, pCab-SU111",56
same,% R percent of seedlings which are resistant,"[2]; T3 seed ID 12-1-5, pCab-SU111",74%
same,#R number of resistant seedlings,"[2]; T3 seed ID 12-1-6, pCab-SU111",254
same,#S number of sensitive seedlings,"[2]; T3 seed ID 12-1-6, pCab-SU111",75
same,% R percent of seedlings which are resistant,"[2]; T3 seed ID 12-1-6, pCab-SU111",77%
same,#R number of resistant seedlings,[2]; WT,0
same,#S number of sensitive seedlings,[2]; WT,77
same,% R percent of seedlings which are resistant,[2]; WT,0%
"COC(=O)c1ccccc1S(=O)(=O)NC(=O)Nc1nc(C)nc(O)n1 [compound 10007, N-[(4-hydroxy-6-methyl-1,3,5-triazinyl)aminocarbonyl]-2-methoxycarbonylbenzenesulfonamide]",concentration in supernatant,[3]; 2 h,12000 nM
same,concentration in supernatant,[3]; 4 h,21000 nM
same,concentration in supernatant,[3]; 6 h,30000 nM
same,concentration in supernatant,[4]; 2 h,2000 nM
same,concentration in supernatant,[4]; 4 h,2000 nM
same,concentration in supernatant,[4]; 6 h,2000 nM
same,concentration in supernatant,S. lividans pCAO200; 2 h,4000 nM
same,concentration in supernatant,S. lividans pCAO200; 4 h,1000 nM
same,concentration in supernatant,S. lividans pCAO200; 6 h,1000 nM
"COc1nc(C)nc(=NC(=O)NS(=O)(=O)c2ccccc2C(=O)O)[nH]1 [compound 10008, N-[(4-methoxy-6-methyl-1,3,5-triazinyl)aminocarbonyl]-2-carboxybenzenesulfonamide]",concentration in supernatant,[3]; 2 h,18000 nM
same,concentration in supernatant,[3]; 4 h,38000 nM
same,concentration in supernatant,[3]; 6 h,55000 nM
same,concentration in supernatant,[4]; 2 h,1000 nM
same,concentration in supernatant,[4]; 4 h,1000 nM
same,concentration in supernatant,[4]; 6 h,1000 nM
same,concentration in supernatant,S. lividans pCAO200; 2 h,0 nM
same,concentration in supernatant,S. lividans pCAO200; 4 h,0 nM
same,concentration in supernatant,S. lividans pCAO200; 6 h,0 nM

# Source: patent publication US5349127A, “Expression of herbicide metabolizing cytochromes P450” (priority 1992, dated 1994)
